Experimental data from patent US20100112030A1, “ROLE OF HEDGEHOG SIGNALING IN ATHEROSCLEROSIS AND CARDIOVASCULAR DISEASE” (The Regents of the University of California, priority 2007, published 2010).

Legend:
Type in all cases: cell-based
[1] = test system: pluripotent mesenchymal cells derived from the bone marrow; experiment: Oxysterol-induced osteoblastic differentiation of pluripotent mesenchymal cells; conditions: hedgehog pathway inhibitor added to oxysterol-treated cells
Excerpt: These mesenchymal cells, which serve as osteoprogenitors during skeletal development and bone remodeling, are induced to undergo osteoblastic differentiation when treated with osteoinductive oxysterols.

[2] = test system: Ptch and Gli1 expression in human aortic smooth muscle cells (HASMC); experiment: Hh target gene (Ptch, Gli1) mRNA expression in HASMC by Q-RT-PCR; conditions: 48 hours of treatment
Description: (§1) Treatment of HASMC with Shh was examined to determine if Shh induces the expression of target genes, Ptch and Gli. […] This difference may be cell-type specific or may be due to heterogeneity in vascular smooth muscle cell populations and their differentiation state. Ptch and Gli1 mRNA expression was induced when using 3 μg/ml of rmShh after 48 hours of treatment (1.6 fold and 1.8 fold, respectively, compared to control vehicle-treated cells as assessed by Q-RT-PCR analysis). This is consistent with studies in which 3.5 μg/ml of Shh was used to activate rat vascular SMC. It is likely that local Shh concentrations may reach very high levels in the microenvironment of the vessel wall, since, as described herein, substantial immunostaining for Shh in atherosclerotic lesions was observed. Cells within the atherosclerotic lesion may also become more susceptible to Shh over time due to the inflammatory insults associated with that environment. […] Dose response and time course experiments can determine the extent and kinetics of Hh target gene expression in aortic SMC, as well as in other vascular cells, using techniques known to a person of ordinary skill.

[3] = test system: Gli1 expression in mouse aortic smooth muscle cells (MASMC); experiment: Hh target gene (Gli1) expression in MASMC; conditions: 48 hours of treatment
Description: as §1

SMILES | oxysterol-induced osteoblastic differentiation of cells [1] | increase in Gli1 expression [2] [fold] | increase in Gli1 expression [3] [fold]
CC1=C2C[C@H]3[C@@H](CC=C4C[C@@H](O)CC[C@@]43C)[C@@H]2CC[C@]12O[C@@H]1C[C@H](C)CN[C@H]1[C@H]2C [cyclopamine] | completely inhibited |  | 
CC(C)CCC[C@](C)(O)[C@H]1CC[C@H]2[C@@H]3CC=C4C[C@@H](O)CC[C@]4(C)[C@H]3CC[C@@]21C [20(S)-hydroxycholesterol] |  | 2 | 2
